What all share (assay): relative viability (nuclei count vs DMSO), 5 days (fraction); higher = more cells survive
Compound in the test “RU-SKI 43 + Navitoclax”: CC[C@@H](C)CNCC(=O)N1CCC2=C([C@@H]1COC3=CC=CC(=C3)C)C=CS2 [RU-SKI 43] + CC1(C)CCC(c2ccc(Cl)cc2)=C(CN2CCN(c3ccc(C(=O)NS(=O)(=O)c4ccc(N[C@H](CCN5CCOCC5)CSc5ccccc5)c(S(=O)(=O)C(F)(F)F)c4)cc3)CC2)C1 [Navitoclax] (partner 0.5 µM)
The method in brief: (§1)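 Relative viability divides the nuclei count in treated wells by that in vehicle wells. Lung cancer cell lines were seeded in 1536-well plates, dosed by pin tool the next day, and fixed and stained after 5 days in one step with final 0.05% Triton X-100, 1% formaldehyde and 1 ug/ml Hoechst. Dosing was a single drug or a fixed anchor-drug dose plus five library-drug doses (not always all listed) in √10 steps, and values are medians of duplicate plates imaged at 4×.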

Compound in the test “MK-8033 + Navitoclax”: Cn1cc(-c2cnc3ccc4ccc(CS(=O)(=O)NCc5ccccn5)cc4c(=O)c3c2)cn1 [MK-8033] + CC1(C)CCC(c2ccc(Cl)cc2)=C(CN2CCN(c3ccc(C(=O)NS(=O)(=O)c4ccc(N[C@H](CCN5CCOCC5)CSc5ccccc5)c(S(=O)(=O)C(F)(F)F)c4)cc3)CC2)C1 [Navitoclax] (partner 0.5 µM)
In outline:
as §1

Compound in the test “MK-8033 + Alpelisib”: Cn1cc(-c2cnc3ccc4ccc(CS(=O)(=O)NCc5ccccn5)cc4c(=O)c3c2)cn1 [MK-8033] + Cc1nc(NC(=O)N2CCC[C@H]2C(N)=O)sc1-c1ccnc(C(C)(C)C(F)(F)F)c1 [Alpelisib] (partner 2 µM)
In outline:
as §1

Compound in the test “MK-8033 + Tozasertib”: Cn1cc(-c2cnc3ccc4ccc(CS(=O)(=O)NCc5ccccn5)cc4c(=O)c3c2)cn1 [MK-8033] + Cc1cc(Nc2cc(N3CCN(C)CC3)nc(Sc3ccc(NC(=O)C4CC4)cc3)n2)n[nH]1 [Tozasertib] (partner 0.1 µM)
The method in brief: as §1

In the supplement of paper PMC10307832 one finds relative viability data, which are given here for four cell lines.

NCI-H1915: the relative viability was found to be 0.776 with RU-SKI 43 + Navitoclax (first compound 0.1 µM); 0.83 with RU-SKI 43 + Navitoclax (first compound 0.3162 µM); 0.8 with RU-SKI 43 + Navitoclax (first compound 1 µM); 0.821 with RU-SKI 43 + Navitoclax (first compound 3.162 µM); 0.78 with RU-SKI 43 + Navitoclax (first compound 10 µM); 0.812 with MK-8033 + Navitoclax (first compound 0.02 µM). Also, the relative viability in the test with MK-8033 + Navitoclax (first compound 0.06325 µM) is 0.699; with MK-8033 + Navitoclax (first compound 0.2 µM), 0.801; with MK-8033 + Navitoclax (first compound 0.6325 µM), 0.811; with MK-8033 + Navitoclax (first compound 2 µM), 0.783; in the test with MK-8033 + Alpelisib (first compound 0.02 µM) it was 1.02; in the test with MK-8033 + Alpelisib (first compound 0.06325 µM) it was 1. Moreover, the relative viability with MK-8033 + Alpelisib (first compound 0.2 µM) was found to be 1.04; with MK-8033 + Alpelisib (first compound 0.6325 µM), 1.11; with MK-8033 + Alpelisib (first compound 2 µM), 1.02; with MK-8033 + Tozasertib (first compound 0.02 µM), 0.435; with MK-8033 + Tozasertib (first compound 0.06325 µM) it was 0.424; with MK-8033 + Tozasertib (first compound 0.2 µM), 0.391. In addition, the relative viability was determined as 0.439 in the test with MK-8033 + Tozasertib (first compound 0.6325 µM) and 0.362 with MK-8033 + Tozasertib (first compound 2 µM).

Turning to NCI-H1944, the relative viability was 1.02 in the test with RU-SKI 43 + Navitoclax (first compound 0.1 µM); 1.05 with RU-SKI 43 + Navitoclax (first compound 0.3162 µM); 1.12 with RU-SKI 43 + Navitoclax (first compound 1 µM); 1.02 with RU-SKI 43 + Navitoclax (first compound 3.162 µM); 0.938 with RU-SKI 43 + Navitoclax (first compound 10 µM); 1.15 with MK-8033 + Navitoclax (first compound 0.02 µM). In addition, the relative viability in the test with MK-8033 + Navitoclax (first compound 0.2 µM) stood at 0.991; with MK-8033 + Navitoclax (first compound 0.6325 µM), 1.02; in the test with MK-8033 + Navitoclax (first compound 2 µM) it was 1.03; with MK-8033 + Alpelisib (first compound 0.02 µM) it was 0.82; with MK-8033 + Alpelisib (first compound 0.2 µM), 0.747; in the test with MK-8033 + Alpelisib (first compound 0.6325 µM), 0.849. Also, the relative viability came to 0.873 in the test with MK-8033 + Alpelisib (first compound 2 µM); 0.237 with MK-8033 + Tozasertib (first compound 0.02 µM); 0.218 with MK-8033 + Tozasertib (first compound 0.06325 µM); 0.209 in the test with MK-8033 + Tozasertib (first compound 0.2 µM); 0.261 with MK-8033 + Tozasertib (first compound 0.6325 µM); 0.23 in the test with MK-8033 + Tozasertib (first compound 2 µM).

On to NCI-H1975, for which the relative viability in the test with RU-SKI 43 + Navitoclax (first compound 0.1 µM) amounted to 1.06; with RU-SKI 43 + Navitoclax (first compound 0.3162 µM) it was 1.45; in the test with RU-SKI 43 + Navitoclax (first compound 1 µM), 1.07; with RU-SKI 43 + Navitoclax (first compound 3.162 µM) it was 1.07; with RU-SKI 43 + Navitoclax (first compound 10 µM), 1.07; with MK-8033 + Navitoclax (first compound 0.02 µM), 1.12. The relative viability in the test with MK-8033 + Navitoclax (first compound 0.06325 µM) was determined as 0.92; with MK-8033 + Navitoclax (first compound 0.2 µM), 1.08; with MK-8033 + Navitoclax (first compound 0.6325 µM), 1.08; in the test with MK-8033 + Navitoclax (first compound 2 µM) it was 1.07; in the test with MK-8033 + Alpelisib (first compound 0.02 µM), 0.604; with MK-8033 + Alpelisib (first compound 0.06325 µM), 0.557. Besides, the relative viability came to 0.584 with MK-8033 + Alpelisib (first compound 0.2 µM); 0.571 with MK-8033 + Alpelisib (first compound 0.6325 µM); 0.649 with MK-8033 + Alpelisib (first compound 2 µM); 0.725 with MK-8033 + Tozasertib (first compound 0.02 µM); 0.608 with MK-8033 + Tozasertib (first compound 0.06325 µM); 0.677 with MK-8033 + Tozasertib (first compound 0.2 µM). Besides, the relative viability in the test with MK-8033 + Tozasertib (first compound 2 µM) turned out to be 0.352.

NCI-H1993: the relative viability worked out at 0.932 with RU-SKI 43 + Navitoclax (first compound 0.1 µM); 0.91 with RU-SKI 43 + Navitoclax (first compound 0.3162 µM); 0.982 in the test with RU-SKI 43 + Navitoclax (first compound 1 µM); 1.05 with RU-SKI 43 + Navitoclax (first compound 3.162 µM); 1.02 with RU-SKI 43 + Navitoclax (first compound 10 µM); 0.866 with MK-8033 + Navitoclax (first compound 0.02 µM). Besides, the relative viability in the test with MK-8033 + Navitoclax (first compound 0.06325 µM) worked out at 0.781; in the test with MK-8033 + Navitoclax (first compound 0.2 µM), 0.859; with MK-8033 + Navitoclax (first compound 0.6325 µM), 0.83; with MK-8033 + Navitoclax (first compound 2 µM), 0.708; with MK-8033 + Alpelisib (first compound 0.02 µM) it was 0.612; with MK-8033 + Alpelisib (first compound 0.06325 µM), 0.611. The relative viability worked out at 0.649 with MK-8033 + Alpelisib (first compound 0.2 µM); 0.714 with MK-8033 + Alpelisib (first compound 0.6325 µM); 0.675 with MK-8033 + Alpelisib (first compound 2 µM); 0.564 with MK-8033 + Tozasertib (first compound 0.02 µM); 0.525 in the test with MK-8033 + Tozasertib (first compound 0.06325 µM); 0.561 in the test with MK-8033 + Tozasertib (first compound 0.2 µM). Further, the results for the relative viability with MK-8033 + Tozasertib (first compound 0.6325 µM) and with MK-8033 + Tozasertib (first compound 2 µM) were 0.525 and 0.583, respectively.
